Measured values reported in patent US12729209B2, “Macrocyclic compounds and methods of treatment” (University of Florida Research Foundation, Incorporated, priority 2020, dated 2026).
Numbered stars: 1 amine (or outer) side, 2 acyl side, 3 side chain; on linkers, the order of the positions; unused ones are H or OH. Square brackets hold non-standard residues; d marks the D form. Peptide text beside a SMILES is read from it. X1 = CN([C@H](C(=O)[*:2])[C@@H](O)C(N)=O)[*:1]; Pro(4S-Me) = C[C@@H]1CN[C@H](C(=O)O)C1; N(OH)Ala = C[C@H](NO)C(=O)O; Lac = C[C@H](O)C(=O)O; Dha = C=C(N)C(=O)O

Experiments:
[1] = tested on: HCT116 colorectal cancer cells; experiment: MTT cell viability assay, parental HCT116; format: cell-based, human; conditions: for IC50: 48 h treatment, read-out: IC50 against HCT116 colorectal cancer cells
Description: (§1) Parental HCT116, HCT116^HIF-1α−/−HIF-2α−/−, HCT116^HIF-1α−/−, HCT116^HIF-2α−/−, HCT116^WT KRAS along with normal colon cell line CCD841-CoN were cultured in Dulbecco's modified Eagle medium (DMEM, Life Technologies, USA) supplemented with 10% Fetal Bovine Serum (FBS, Sigma, USA) and maintained in 5% CO2 at 37° C. HCT116 cells (8,000 cells/well) and normal cells (3,000 cells/well) were seeded in 96-well plates, allowed to attach overnight and then treated with different concentrations of GB1 (1a) or solvent control (0.5% DMSO). Cell viability was measured 48 h following treatment with MTT dye using manufacturer's protocol (Promega). IC50 was determined by non-linear regression analysis using GraphPad Prism 8. Data are represented as average±SD (n=3).

[2] = from C=CCON(C(=O)[C@H]([C@@H](O[Si](C)(C)C(C)(C)C)C(=O)NC(c1ccccc1)(c1ccccc1)c1ccccc1)N(C)C(=O)C(C)OC(=O)[C@@H]1CC(C)CN1C(=O)OCC1c2ccccc2-c2ccccc21)[C@@H](C)C(=O)N[C@@H](C[Se]c1ccccc1)C(=O)OCC1c2ccccc2-c2ccccc21; amide bond; PyBOP/HOAt/DIEA; CH2Cl2; 0.61 mM; 25.0 °C; 24.0 h; 2 steps
[3] = tested on: ovarian (OVCAR-3) cancer cells; experiment: NCI-60 screen, OVCAR-3; format: cell-based; conditions: NCI-60 data
Text: (§2) FIG. 27 depicts a heatmap for the performance of GB1 across cell lines in the NCI-60 screen using three different values (growth-inhibitory effect, GI50; cytostatic effect, TGI; cytotoxic effect, LC50; concentration in M).

NCI-60 cell lines = conditions: versus paclitaxel, eribulin, colchicine and vinca bis-indole alkaloid derivatives
Text: Furthermore, cervical and breast cancers are relevant indications, prompting additional studies in these cell types^35.

tubulin = experiment: Tubulin polymerization assay (fluorescence based in vitro kit); format: biochemical; conditions: tubulin 2 mg/mL, 37° C., 1 hour
Description: Tubulin polymerization was performed using fluorescence based in vitro polymerization kit (Cytoskeleton, #BK011P) per the manufacturer recommendation. Briefly, the provided tubulin was reconstituted to 10 mg/mL stock, as recommended, and used at final concentration of 2 mg/mL in 80 mM PIPES pH 6.9, 2.0 mM MgCl2, 0.5 mM EGTA, 1.0 mM GTP and 15% glycerol for the assays. The compound was prepared in 3-fold dilutions and kept on ice until the assay was started. Buffer components and tubulin stocks were kept on ice until use. The assay plate was pre-warmed at 37° C. for 10 minutes and the compounds were added to the plate wells at 5 uL (<10% DMSO) for 1 minute to warm. Fifty microliters of tubulin reaction mix (2 mg/mL in 80 mM PIPES pH 6.9, 2.0 mM MgCl2, 0.5 mM EGTA, 1.0 mM GTP and 15% glycerol) was added to each well and mixed gently with the inhibitor to avoid bubble formation. The plate was read on FlexStation3 reader (Molecular Devices) at 360 nm excitation/450 nm emission, every minute for 1 hours at 37° C. Decrease in fluorescent signal indicated inhibition of polymerization.

[4] = Qualitative test for Fe(III) chelating ability; format: physicochemical; conditions: FeCl3 solution in ethanol (5% wt), orange spot
Text: We applied a solution of GB1 (1a) in CH2Cl2 to reverse TLC (C18) (MeOH/H2O 1:1, v/v), then dipped the TLC into FeCl3 solution in ethanol (5% wt).

[5] = tested on: HCT116^HIF-1α−/−HIF-2α−/− cells; experiment: MTT cell viability assay, isogenic HCT116 double knockout; format: cell-based, human; conditions: 48 h, versus parental HCT116
Description: as §1

HeLa cells = experiment: Caspase-3/7 activity (Caspase-Glo 3/7) in HeLa cells; format: cell-based; conditions: increasing concentrations, 14 h, 24 h and 36 h
Description: FIG. 29 depicts that GB1 causes apoptosis in HeLa cells with increased caspase activity. HeLa cells were treated with increasing concentrations of GB1 and combretastatin-4 (CA-4) (100 nM) using 0.5% DMSO as solvent control. Caspase-3/7 activity was measured using Caspase-Glo 3/7 reagent kit at 14 h, 24 h and 36 h. Data represents average of three replicates with ±SD. The p-values were calculated using two-tailed Student t-test; *p<0.05, **p<0.01, ***p<0.005.

[6] = tested on: melanoma (SK-MEL-5) cancer cells; experiment: NCI-60 screen, SK-MEL-5; format: cell-based; conditions: NCI-60 data
Text: as §2

HCT116 cells [7] = experiment: NCI-60 screen (sulforhodamine B assay), HCT116; format: cell-based, human; conditions: NCI-60 data, read-out: GI50 against HCT116 cells
Text: as §2

HCT116^HIF-1α−/− cells = experiment: MTT cell viability assay, isogenic HCT116 HIF-1α knockout; format: cell-based, human; conditions: 48 h, versus parental HCT116
Description: as §1

[8] = tested on: CCD841-CoN normal epithelial colon cells; experiment: MTT cell viability assay, normal colon cells; format: cell-based; conditions: 48 h treatment
Description: as §1

[9] = tested on: prostate (DU-145) cancer cells; experiment: NCI-60 screen, DU-145; format: cell-based; conditions: NCI-60 data
Text: as §2

COLO205 cells = experiment: NCI-60 screen (sulforhodamine B assay), COLO205; format: cell-based; conditions: NCI-60 data, read-out: GI50 against COLO205 cells
Text: as §2

HCT116^WT KRAS cells = experiment: MTT cell viability assay, oncogenic KRAS knockout; format: cell-based, human; conditions: 48 h, versus parental HCT116
Description: as §1

HCT116^HIF-2α−/− cells = experiment: MTT cell viability assay, isogenic HCT116 HIF-2α knockout; format: cell-based, human; conditions: 48 h, compared among isogenic lines
Description: as §1

VEGFA = experiment: HIF target gene (VEGFA) expression by RT-qPCR; format: cell-based, human; conditions: 3.2 μM (4×IC50), 16 h, parental HCT116 cells, β-actin endogenous control
Description: FIG. 26 depicts HIF target gene (VEGFA) expression after 16 h exposure of parental HCT116 cells to GB1 (3.2 μM) or vehicle (0.25% DMSO). RNA was isolated, reverse transcribed and subjected to qPCR using TaqMan analysis. β-actin served as endogenous control. Error bars indicate mean±SD of three replicates (student t test, *p<0.05).
HCT116 cells were seeded in 6-well plates at a density of 4×10^5 per well and incubated overnight for cells to attach. Cells were treated with 3.2 μM GB1 or 0.25% DMSO (vehicle). RNA was isolated 16 h later using the RNeasy mini kit (QIAGEN, Valencia, CA). Total RNA was quantified using NanoDrop 2000. cDNA synthesis was carried out using SuperScript II Reverse Transcriptase (Invitrogen, Carlsbad, CA) and oligo (dT) (Invitrogen) from 2 μg of total RNA. The qPCR after reverse transcription (RT-qPCR) was performed on a 25 μL reaction solution containing a […] aliquot of cDNA, 12.5 μL of TaqMan gene expression master mix, 1.25 μL of probes, and 11 μL RNase-free water. qPCR was carried out on an ABI 7300 sequence detection system using the thermocycler program: 2 min at 50° C., 10 min at 95° C., and 15 s at 95° C. (40 cycles) and 1 min at 60° C. Experiments were performed in triplicate. Probes for target gene: VEGFA (Hs00900055_m1) and for endogenous control: β-actin (Hs99999903_m1). […]

HCT116 cells [10] = experiment: HCT116 cell cycle analysis (propidium iodide, flow cytometry); format: cell-based, human; conditions: 320 nM, 1 μM, 3.2 μM, 24 h
Description: FIG. 25 depicts a cell cycle analysis. HCT116 cells were treated with GB1 (320 nM, 1 μM, 3.2 μM) or vehicle control (0.25% DMSO) for 24 h and DNA content assessed by flow cytometry of propidium iodide stained cells.
HCT116 cells were seeded in 6-well plates (400,000 cells/well, DMEM/10% FBS and allowed to attach overnight prior to treatment with GB1. Media was replaced by fresh DMEM/10% FBS after 24 h of incubation and treated with compound and solvent control (0.25% DMSO) for 24 h. The medium in each well was collected separately, and the cells washed with 500 μL PBS and collected into the corresponding tubes. Cells were detached using trypsin (Invitrogen) and collected into the corresponding tubes and centrifuged at 400 g for 10 min at 4° C. The supernatant was discarded and the cell pellets were resuspended in 500 μL ice-cold PBS, centrifuged at 400 g for 10 min at 4° C. and supernatant was discarded. The cell pellets were resuspended in 300 μL ice-cold PBS and 700 μL ice-cold EtOH was added slowly to each cell suspension with gentle pipetting. Cells were incubated at −20° C. overnight and centrifuged at 400 g for 10 min at 4° C. next day. […] Fluorescence from propidium iodide-DNA complexes were quantified using FACScan (BD Biosciences LSRFortessa) and data were analyzed using ModFit LT (Verity Software House).

Molecule | IC50 [1] [µM] | ring closure, yield of all isomers [2] [%] | susceptibility of OVCAR-3 ovarian cancer cells [3] | COMPARE correlation (P) of cytotoxicity profile with antimitotic/tubulin agents (NCI-60 cell lines) | inhibition of tubulin polymerization in vitro (tubulin) | Fe(III) chelating ability (FeCl3 on TLC) [4] | potency and efficacy against HCT116^HIF-1α−/−HIF-2α−/− [5] | caspase-3/7 activity / apoptosis in HeLa cells (HeLa cells) | susceptibility of SK-MEL-5 melanoma cells [6] | GI50 (HCT116 cells [7]) [µM] | potency and efficacy against HCT116^HIF-1α−/− (HCT116^HIF-1α−/− cells) | effect on the viability of CCD-841CoN normal epithelial colon cells [8] | IC50 ([8]; read-out: IC50 against normal mucosal colon cells) [µM] | antiproliferative activity, relative susceptibility of parental HCT116 cells ([1]; 48 h, compared among isogenic lines) | susceptibility of DU-145 prostate cancer cells [9] | GI50 (COLO205 cells) [µM] | potency and efficacy against oncogenic KRAS knockout (HCT116^WT KRAS) (HCT116^WT KRAS cells) | antiproliferative activity, relative susceptibility of HCT116^HIF-2α−/− (HCT116^HIF-2α−/− cells) | HIF-1α target gene VEGFA expression (VEGFA) | cell cycle effect (DNA content) (HCT116 cells [10])
Gatorbulin-2 [GB2] | > 10 | – | – | – | – | – | – | – | – | – | – | – | – | – | – | – | – | – | – | –
C=CCON1C(=O)[C@H]([C@@H](O[Si](C)(C)C(C)(C)C)C(=O)NC(c2ccccc2)(c2ccccc2)c2ccccc2)N(C)C(=O)C(C)OC(=O)[C@@H]2CC(C)CN2C(=O)[C@H](C[Se]c2ccccc2)NC(=O)[C@@H]1C (stereo partly drawn) | – | 60.3 | – | – | – | – | – | – | – | – | – | – | – | – | – | – | – | – | – | –
C=C1NC(=O)[C@H](C)N(O)C(=O)[C@H]([C@@H](O)C(N)=O)N(C)C(=O)[C@H](C)OC(=O)[C@@H]2C[C@H](C)CN2C1=O [GB1, Gatorbulin-1] (cyclo([Dha][Pro(4S-Me)][Lac][X1][N(OH)Ala])) | 0.8 | – | susceptible | 0.75-0.85 | directly inhibits tubulin polymerization | positive reaction | reduced | induces apoptosis | susceptible | 0.306 | reduced | marginal effect | > 10 | most susceptible | susceptible | 0.092 | reduced | most susceptible | downregulation | induced G2/M accumulation
